Assay results from PubChem BioAssay (NCI).
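Results reflect a 48-hour exposure of cells in 96-well plates to compound at five concentrations. The concentration for 50% growth inhibition is given as GI50. TGI denotes the concentration required for complete inhibition of growth.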

Columns and labels:
Assay in all cases: NCI-60 cell line screen, 48 h
ACHN renal = tested on: ACHN renal
KM12 colon = tested on: KM12 colon
SF-539 CNS = tested on: SF-539 CNS
MDA-MB-435 = tested on: MDA-MB-435
SNB-19 CNS = tested on: SNB-19 CNS
DU-145 prostate = tested on: DU-145 prostate
BT-549 breast = tested on: BT-549 breast
MOLT-4 leukemia = tested on: MOLT-4 leukemia
HCT-116 colon = tested on: HCT-116 colon
K-562 leukemia = tested on: K-562 leukemia
CCRF-CEM leukemia = tested on: CCRF-CEM leukemia
NCI-H226 lung = tested on: NCI-H226 lung
U251 CNS = tested on: U251 CNS
MDA-MB-468 breast = tested on: MDA-MB-468 breast
IGROV1 ovarian = tested on: IGROV1 ovarian
HCT-15 colon = tested on: HCT-15 colon
NCI-H460 lung = tested on: NCI-H460 lung
MCF7 breast = tested on: MCF7 breast
CAKI-1 renal = tested on: CAKI-1 renal
HL-60(TB) leukemia = tested on: HL-60(TB) leukemia
OVCAR-5 ovarian = tested on: OVCAR-5 ovarian
HOP-62 NSCLC = tested on: HOP-62 NSCLC
TK-10 renal = tested on: TK-10 renal
SK-OV-3 ovarian = tested on: SK-OV-3 ovarian
NCI/ADR-RES ovarian = tested on: NCI/ADR-RES ovarian
HT29 colon = tested on: HT29 colon
OVCAR-4 ovarian = tested on: OVCAR-4 ovarian
SF-295 CNS = tested on: SF-295 CNS
OVCAR-8 ovarian = tested on: OVCAR-8 ovarian
LOX IMVI melanoma = tested on: LOX IMVI melanoma
EKVX NSCLC = tested on: EKVX NSCLC
A498 renal = tested on: A498 renal
A549 NSCLC = tested on: A549 NSCLC
HOP-92 NSCLC = tested on: HOP-92 NSCLC
NCI-H23 lung = tested on: NCI-H23 lung
SK-MEL-2 melanoma = tested on: SK-MEL-2 melanoma
OVCAR-3 ovarian = tested on: OVCAR-3 ovarian
SW-620 colon = tested on: SW-620 colon
HS 578T breast = tested on: HS 578T breast
COLO 205 colon = tested on: COLO 205 colon
RPMI-8226 leukemia = tested on: RPMI-8226 leukemia
SK-MEL-5 melanoma = tested on: SK-MEL-5 melanoma
RXF 393 renal = tested on: RXF 393 renal
SN12C renal = tested on: SN12C renal
UACC-62 melanoma = tested on: UACC-62 melanoma
T-47D breast = tested on: T-47D breast
M14 melanoma = tested on: M14 melanoma
HCC-2998 colon = tested on: HCC-2998 colon
SNB-75 CNS = tested on: SNB-75 CNS
SF-268 CNS = tested on: SF-268 CNS
786-0 renal = tested on: 786-0 renal
NCI-H522 lung = tested on: NCI-H522 lung
MALME-3M melanoma = tested on: MALME-3M melanoma
UACC-257 melanoma = tested on: UACC-257 melanoma
PC-3 prostate = tested on: PC-3 prostate

Clc1ccc(/C=N/Nc2ncnc3sc4c(c23)CCN(Cc2ccccc2)C4)cc1
GI50 (ACHN renal): 15.8 µM
TGI (ACHN renal): > 100 µM
GI50 (KM12 colon): 11.9 µM
TGI (KM12 colon): > 100 µM
GI50 (SF-539 CNS): 4.1 µM
TGI (SF-539 CNS): 18.2 µM
GI50 (MDA-MB-435): 7.26 µM
TGI (MDA-MB-435): > 100 µM
GI50 (SNB-19 CNS): 6.06 µM
TGI (SNB-19 CNS): > 100 µM
GI50 (DU-145 prostate): 5.67 µM
TGI (DU-145 prostate): > 100 µM
GI50 (BT-549 breast): 23.4 µM
TGI (BT-549 breast): > 100 µM
GI50 (MOLT-4 leukemia): 4.53 µM
TGI (MOLT-4 leukemia): 34.5 µM
GI50 (HCT-116 colon): 3.04 µM
TGI (HCT-116 colon): 10.4 µM
GI50 (K-562 leukemia): 4.16 µM
TGI (K-562 leukemia): 54.9 µM
GI50 (CCRF-CEM leukemia): 3.51 µM
TGI (CCRF-CEM leukemia): 25.5 µM
GI50 (NCI-H226 lung): 2.31 µM
TGI (NCI-H226 lung): 7.41 µM
GI50 (U251 CNS): 4 µM
TGI (U251 CNS): 16.6 µM
GI50 (MDA-MB-468 breast): 3.72 µM
TGI (MDA-MB-468 breast): 15.8 µM
GI50 (IGROV1 ovarian): 20.1 µM
TGI (IGROV1 ovarian): > 100 µM
GI50 (HCT-15 colon): 4.04 µM
TGI (HCT-15 colon): 25.2 µM
GI50 (NCI-H460 lung): 2.26 µM
TGI (NCI-H460 lung): 4.88 µM
GI50 (MCF7 breast): 2.98 µM
TGI (MCF7 breast): 15 µM
GI50 (CAKI-1 renal): > 100 µM
TGI (CAKI-1 renal): > 100 µM
GI50 (HL-60(TB) leukemia): 5.59 µM
TGI (HL-60(TB) leukemia): 43 µM
GI50 (OVCAR-5 ovarian): 20.9 µM
TGI (OVCAR-5 ovarian): > 100 µM
GI50 (HOP-62 NSCLC): 4.8 µM
TGI (HOP-62 NSCLC): 25.2 µM
GI50 (TK-10 renal): 20.8 µM
TGI (TK-10 renal): 41.9 µM
GI50 (SK-OV-3 ovarian): 20.8 µM
TGI (SK-OV-3 ovarian): 78.4 µM
GI50 (NCI/ADR-RES ovarian): 2.34 µM
TGI (NCI/ADR-RES ovarian): 5.84 µM
GI50 (HT29 colon): 3.37 µM
TGI (HT29 colon): 13.7 µM
GI50 (OVCAR-4 ovarian): 2.76 µM
TGI (OVCAR-4 ovarian): 7.52 µM
GI50 (SF-295 CNS): 4.19 µM
TGI (SF-295 CNS): 21.6 µM
GI50 (OVCAR-8 ovarian): 1.95 µM
TGI (OVCAR-8 ovarian): 3.99 µM
GI50 (LOX IMVI melanoma): 2.9 µM
TGI (LOX IMVI melanoma): 9.74 µM
GI50 (EKVX NSCLC): 65.6 µM
TGI (EKVX NSCLC): > 100 µM
GI50 (A498 renal): 25.8 µM
TGI (A498 renal): 59.2 µM
GI50 (A549 NSCLC): 12.1 µM
TGI (A549 NSCLC): > 100 µM
GI50 (HOP-92 NSCLC): 2.4 µM
TGI (HOP-92 NSCLC): 6.7 µM
GI50 (NCI-H23 lung): 12 µM
TGI (NCI-H23 lung): > 100 µM
GI50 (SK-MEL-2 melanoma): 16 µM
TGI (SK-MEL-2 melanoma): 42.7 µM
GI50 (OVCAR-3 ovarian): 2.49 µM
TGI (OVCAR-3 ovarian): 5.33 µM
GI50 (SW-620 colon): 3.85 µM
TGI (SW-620 colon): 31.9 µM
GI50 (HS 578T breast): 6.33 µM
TGI (HS 578T breast): > 100 µM
GI50 (COLO 205 colon): 3.52 µM
TGI (COLO 205 colon): 12.9 µM
GI50 (RPMI-8226 leukemia): 5.39 µM
TGI (RPMI-8226 leukemia): 84.9 µM
GI50 (SK-MEL-5 melanoma): 18.6 µM
TGI (SK-MEL-5 melanoma): > 100 µM
GI50 (RXF 393 renal): 10.2 µM
TGI (RXF 393 renal): 26.6 µM
GI50 (SN12C renal): 9.09 µM
TGI (SN12C renal): > 100 µM
GI50 (UACC-62 melanoma): 30.5 µM
TGI (UACC-62 melanoma): > 100 µM
GI50 (T-47D breast): 22.5 µM
TGI (T-47D breast): > 100 µM
GI50 (M14 melanoma): 2.65 µM
TGI (M14 melanoma): 7.66 µM
GI50 (HCC-2998 colon): 10.7 µM
TGI (HCC-2998 colon): > 100 µM
GI50 (SNB-75 CNS): 3.21 µM
TGI (SNB-75 CNS): 41.2 µM
GI50 (SF-268 CNS): 8.38 µM
TGI (SF-268 CNS): > 100 µM
GI50 (786-0 renal): 3.85 µM
TGI (786-0 renal): 14.8 µM
GI50 (NCI-H522 lung): 23.9 µM
TGI (NCI-H522 lung): > 100 µM
GI50 (MALME-3M melanoma): 4.96 µM
TGI (MALME-3M melanoma): > 100 µM
GI50 (UACC-257 melanoma): 9.6 µM
TGI (UACC-257 melanoma): 76.9 µM
GI50 (PC-3 prostate): 3.63 µM
TGI (PC-3 prostate): 32.5 µM
